Like-named read-outs stand apart in the source and are kept apart here.
Key:
[1] = test system: ALPK1-dependent gene expression in PBMC; assay: Inhibition of ALPK1 in PBMC cells; format: in vivo, Sprague-Dawley (SD) rats; conditions: SD rats, 10 mpk oral, ALPK1 agonist ip 2 h later, blood 3 h after agonist; compared with vehicle group
Protocol: We examined whether ALPK1 inhibitors can suppress ALPK1-dependent activation of a set of such genes in rats. […] PBMCs were collected and gene expression analyzed, as described in more detail below.
After 3 hours administration of the ALPK1 agonist, the blood was collected from heart, and PBMC were extracted from each group.

[2] = test system: ALPK1-TIFA-IL1β pathway in THP-1-derived macrophage cells; assay: PMA-differentiated THP-1 cell based assay; conditions: for IC50: Homo sapiens, PMA-differentiated THP-1 cells stimulated with ALPK1 agonist
Protocol: We evaluated the ability of ALPK1 inhibitors to suppress IL1β, IL8 and TNF-α levels following ALPK1 activation in THP-1-derived macrophage cells. […] Inhibitory activity is measured as suppression of IL1β.
THP-1 cells were cultured in RPMI 1640 containing 10% heat inactivated FBS, penicillin (100 units/ml) and streptomycin (100 μg/ml), and maintained in a humidified incubator with 95% atmospheric air and 5% CO2. Prior to the experiment, THP-1 cells were seeded into 24-well flat-bottom plate at a cell density of 40,0000 cells/well. Phorbol myristate acetate (PMA; 50 ng/ml) was used to treat THP-1 cells for 48 h, and then THP-1-derived macrophages were obtained. […] Total RNA was extracted using the TRIzol method and reverse-transcribed. The mRNA expression levels IL1β, IL8 and TNF-α were detected by SYBR green gene expression assays. Expression levels of mRNA were normalized to GAPDH. Relative expression was calculated by comparing to vehicle control and the values were plotted as fold induction. All activity results were expressed as the mean of triplicate determinations. IC50 was determined from dose response curve using Prism Software, version 6.00 from GraphPad Software.

[3] = molecular target: ALPK1 (Homo sapiens (Human), UniProt Q96QP1); assay: ALPK1 in vitro kinase assay (HTRF, TIFA phosphorylation); format: biochemical; conditions: HTRF of HA-tagged TIFA; ALPK1 2 nM; ADP-Heptose as activator
Protocol: ALPK1 kinase activity was measured in an in vitro assay using ADP-Heptose as the ALPK1 ligand and activator of its kinase activity and TIFA protein as the ALPK1 phosphorylation substrate. Since phosphorylated TIFA proteins oligomerize, Homogeneous Time-Resolved Fluorescence (HTRF) was used to measure protein: protein interaction between HA-tagged TIFA proteins as an indicator of TIFA phosphorylation.
In brief, dose-response studies were performed in 384-well assay plates. Each well contained 0.1 mg TIFA, ALPK1 (2 nM final concentration in reaction mixture) and kinase buffer (100 mM of HEPES pH 7.4, 4 mM DTT, 40 mM MgCl2, 20 mM of β-Glycerol phosphate disodium salt, 0.4 mM of Na3 VO4, 0.16 mg/mL). Titrations of the test compounds were prepared in dimethylsulphoxide (DMSO). The reaction was initiated by addition of ATP and ADP-Heptose.
For HTRF, samples were incubated with a Tb cryptate-labeled anti-HA antibody for capturing HA-tagged proteins according to the manufacturer's instructions (PerkinElmer™, CisBio™) and the fluorescence signal was quantified (Tecan Infinite F NANO+). HTRF signals were calculated as the HTRF ratio (ratio of fluorescence measured at 665 nm and 620 nm)×104 (thereby using the signal at 620 nm as an internal standard).
IC50 values were determined using 3- or 4-parameter logistic equation using GraphPad Prism version 6.00.

[4] = test system: OSS-induced inflammatory signaling in ECs (HUVECs); assay: Oscillatory shear stress (OSS) in HUVECs; format: cell-based, human; conditions: oscillatory flow 0.5±4 dyn/cm2 for 6 hours, 300 nM
Protocol: For flow experiments, confluent monolayers of HUVECs were seeded on glass slides, Static condition (ST) without any treatment served as control and a parallel plate flow system was used to impose oscillatory flow (0.5±4 dyn/cm2) for 6 hours.

[5] = test system: innate immunity gene expression following ALPK1 activation; assay: Inhibition of ALPK1 in coronary artery, aorta, and heart muscle; format: in vivo, Sprague-Dawley (SD) rats; conditions: SD rats, 40 mpk oral, ALPK1 agonist ip 2 h later, tissue 3 h after agonist; compared with vehicle group
[6] = test system: PCL induced atherosclerosis in ApoE knockout mice; assay: ApoE mice, high fat diet, Partial Carotid Ligation atherosclerosis model; format: in vivo, mouse; conditions: high fat diet, 1, 3, 9 mg/kg oral once daily for 2 weeks from PCL surgery
From the text: To determine the efficacy of ALPK1 inhibitor in atherosclerosis, we treat the ApoE mice with High Fat Diet (Research Diet, D12109C), and perform Partial Carotid Ligation (PCL) surgery on left Carotid artery as described previously (Zhang, Chenghu et al. “Coupling of Integrin a5 to Annexin A2 by Flow Drives Endothelial Activation.” Circulation research vol. 127, 8 (2020): 1074-1090) to accelerate the development of atherosclerosis. […] Two weeks later, the carotid artery of ligated side was collected, the contralateral carotid from vehicle group were served as control. The carotid was fixed and sectioned. The wall thicknesses were quantified by software.

[7] = test system: ALPK1-TIFA pathway target gene mRNA in HASMC; assay: Primary Human Aorta Smooth Muscle Cell-based assay; conditions: for IC50: Homo sapiens, HASMC stimulated with ALPK1 agonist
Protocol: Primary Human Aorta smooth muscle Cells (HASMC) grow in Smooth muscle Cell Basal Media supplemented with Smooth Muscle Cell Growth Kit components (PriMed-iCell-002, iCell), provide an ideal cell system to propagate HASMC.
Briefly, primary HASMC were seeded at a density of 25000 cells per well to a collagen coated 24-well culture plate. […] Total RNA was extracted using the RNeasy mini kit method and reverse-transcribed. The mRNA expression levels of target genes were detected by SYBR green gene expression assays. Expression levels of mRNA were normalized to HPRT. Relative expression was calculated by comparing to vehicle control and the values were plotted as fold induction. All activity results were expressed as the mean of triplicate determinations. IC50 was determined from dose response curve using Prism Software, version 6.00 from GraphPad Software.

[8] = test system: carotid artery of Guinea Pig after PCL surgery; assay: Guinea pig, high fat diet, Partial Carotid Ligation model; format: in vivo; conditions: 6 weeks high fat diet

ALPK1, sequence (Q96QP1 whole entry): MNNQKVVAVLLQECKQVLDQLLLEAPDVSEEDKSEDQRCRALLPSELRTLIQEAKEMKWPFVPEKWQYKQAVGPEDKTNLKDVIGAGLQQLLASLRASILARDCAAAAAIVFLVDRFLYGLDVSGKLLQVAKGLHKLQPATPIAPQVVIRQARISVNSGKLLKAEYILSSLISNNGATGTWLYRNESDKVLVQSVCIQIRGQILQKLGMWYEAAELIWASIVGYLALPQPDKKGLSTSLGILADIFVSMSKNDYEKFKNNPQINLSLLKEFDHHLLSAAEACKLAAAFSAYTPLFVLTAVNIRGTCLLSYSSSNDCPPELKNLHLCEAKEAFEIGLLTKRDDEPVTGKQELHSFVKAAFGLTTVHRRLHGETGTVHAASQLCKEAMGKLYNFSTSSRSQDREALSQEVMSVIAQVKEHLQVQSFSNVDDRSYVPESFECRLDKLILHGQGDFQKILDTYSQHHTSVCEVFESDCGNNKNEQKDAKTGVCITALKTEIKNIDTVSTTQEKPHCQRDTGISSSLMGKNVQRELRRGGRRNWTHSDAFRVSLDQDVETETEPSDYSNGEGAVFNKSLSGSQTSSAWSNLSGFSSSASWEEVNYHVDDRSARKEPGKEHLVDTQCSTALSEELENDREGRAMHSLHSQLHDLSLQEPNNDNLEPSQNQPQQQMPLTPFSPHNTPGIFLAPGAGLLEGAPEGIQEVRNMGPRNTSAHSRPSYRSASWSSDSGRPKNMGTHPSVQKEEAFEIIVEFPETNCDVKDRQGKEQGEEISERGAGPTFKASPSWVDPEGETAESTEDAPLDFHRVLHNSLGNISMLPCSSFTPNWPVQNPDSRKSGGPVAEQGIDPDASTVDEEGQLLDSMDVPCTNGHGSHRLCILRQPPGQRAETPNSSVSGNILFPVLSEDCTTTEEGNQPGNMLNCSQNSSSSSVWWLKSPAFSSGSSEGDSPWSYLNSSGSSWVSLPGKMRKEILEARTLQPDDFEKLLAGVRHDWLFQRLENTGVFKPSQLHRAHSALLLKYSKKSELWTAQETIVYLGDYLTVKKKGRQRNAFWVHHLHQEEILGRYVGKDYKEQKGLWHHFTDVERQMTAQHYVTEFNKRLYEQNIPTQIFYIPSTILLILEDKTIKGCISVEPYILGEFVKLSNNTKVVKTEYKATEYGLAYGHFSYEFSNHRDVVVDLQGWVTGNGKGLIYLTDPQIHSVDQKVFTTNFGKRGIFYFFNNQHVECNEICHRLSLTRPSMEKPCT

## C#C[C@@](C)(c1ccc(Cl)cc1)c1csc(NC(=O)NCCO)n1 [Compound A176, (S)-1-(4-(2-(4-chlorophenyl)but-3-yn-2-yl)thiazol-2-yl)-3-(2-hydroxyethyl)urea]
[1]
  PBMC mRNA expression for CCL-2, CCL-7, CXCL-1, CXCL-10, CXCL-11 and IL-1β: significant decreases
[2]; THP-1-derived macrophages
  inhibition of IL1β induced by ALPK1 activation: potent inhibition

## COc1ccc(C(C)(C)c2csc(NC(=O)c3ccc(N4CCNCC4C)cc3)n2)cc1 (centres unmarked) [Compound B014]
[3]
  IC50: 0.3 µM

## COc1ccc(C(C)(C)c2csc(NC(=O)c3ccc(N4CCNCC4)cn3)n2)cc1 [Compound B044, N-(4-(2-(4-methoxyphenyl)propan-2-yl)thiazol-2-yl)-5-(piperazin-1-yl)picolinamide]
[3]
  IC50: 0.213 µM

## C#C[C@@](C)(c1ccc(Cl)cc1)c1csc(NC(=O)c2c(F)cc(N3CCNCC3)cc2F)n1 [Compound C008, (S)-N-(4-(2-(4-chlorophenyl)but-3-yn-2-yl)thiazol-2-yl)-2,6-difluoro-4-(piperazin-1-yl)benzamide]
[1]
  PBMC mRNA expression for CCL-7, CXCL-1, CXCL-10, CXCL-11, IL-1β, TNF-α and IL-6: significant decreases
[4]
  OSS-induced inflammatory signaling in ECs (E-selectin and inflammatory cytokine mRNA): reduced
[2]; read-out: IL-8 mRNA IC50
  IC50: 0.006 µM
[2]; read-out: TNF-α mRNA IC50
  IC50: 0.009 µM
[2]; THP-1-derived macrophages
  inhibition of IL1β induced by ALPK1 activation: potent inhibition
  inhibition of IL8 and TNF-α mRNA induced by ALPK1 activation: potent inhibition
[5]
  mRNA expression of aorta IL-6, CXCL-1, CXCL-10, CCL-2: significantly decreased
  mRNA expression of cardiac muscle TNF-α, IL-1b, IL-6, CXCL-1, CXCL-10, CXCL-11, CCL-2 and CCL-5: significantly decreased
  mRNA expression of coronary artery TNF-α, CXCL-1, CCL-2 and CCL-7: significantly decreased
[6]
  PCL induced atherosclerosis (carotid artery wall thickness): dose dependently inhibited
[7]; HASMC
  IL8, TIFA, ICAM-1, VCAM-1 mRNA levels induced by ALPK1 activation: dose dependently inhibited
[7]; read-out: IC50 ICAM-1 mRNA
  IC50: 0.047 µM
[7]; read-out: IC50 IL8 mRNA
  IC50: 0.11 µM
[7]; read-out: IC50 TIFA mRNA
  IC50: 0.115 µM
[7]; read-out: IC50 VCAM-1 mRNA
  IC50: 0.038 µM
[8]
  fibrosis area percentage of the carotid artery (Masson staining): decreased
  liver CYP7A1 expression: elevated CYP7A1 expression dose dependently
  total plasma cholesterol level: dose dependently decreased
  wall thickness of the carotid artery (Masson staining): decreased

Source: patent publication US20250241908A1 (SHANGHAI YAO YUAN BIOTECHNOLOGY CO., LTD., priority 2022, published 2025)
